The data set has as its target ATP-dependent translocase ABCB1 (Mus musculus, UniProt P21447). In words: TP_TRANSPORTER: increase in brain concentration in mdr1a(-/-) mouse. It is filed as functional, organism-based. The settings on record: in vivo.

Sequence of ATP-dependent translocase ABCB1 (P21447 whole entry): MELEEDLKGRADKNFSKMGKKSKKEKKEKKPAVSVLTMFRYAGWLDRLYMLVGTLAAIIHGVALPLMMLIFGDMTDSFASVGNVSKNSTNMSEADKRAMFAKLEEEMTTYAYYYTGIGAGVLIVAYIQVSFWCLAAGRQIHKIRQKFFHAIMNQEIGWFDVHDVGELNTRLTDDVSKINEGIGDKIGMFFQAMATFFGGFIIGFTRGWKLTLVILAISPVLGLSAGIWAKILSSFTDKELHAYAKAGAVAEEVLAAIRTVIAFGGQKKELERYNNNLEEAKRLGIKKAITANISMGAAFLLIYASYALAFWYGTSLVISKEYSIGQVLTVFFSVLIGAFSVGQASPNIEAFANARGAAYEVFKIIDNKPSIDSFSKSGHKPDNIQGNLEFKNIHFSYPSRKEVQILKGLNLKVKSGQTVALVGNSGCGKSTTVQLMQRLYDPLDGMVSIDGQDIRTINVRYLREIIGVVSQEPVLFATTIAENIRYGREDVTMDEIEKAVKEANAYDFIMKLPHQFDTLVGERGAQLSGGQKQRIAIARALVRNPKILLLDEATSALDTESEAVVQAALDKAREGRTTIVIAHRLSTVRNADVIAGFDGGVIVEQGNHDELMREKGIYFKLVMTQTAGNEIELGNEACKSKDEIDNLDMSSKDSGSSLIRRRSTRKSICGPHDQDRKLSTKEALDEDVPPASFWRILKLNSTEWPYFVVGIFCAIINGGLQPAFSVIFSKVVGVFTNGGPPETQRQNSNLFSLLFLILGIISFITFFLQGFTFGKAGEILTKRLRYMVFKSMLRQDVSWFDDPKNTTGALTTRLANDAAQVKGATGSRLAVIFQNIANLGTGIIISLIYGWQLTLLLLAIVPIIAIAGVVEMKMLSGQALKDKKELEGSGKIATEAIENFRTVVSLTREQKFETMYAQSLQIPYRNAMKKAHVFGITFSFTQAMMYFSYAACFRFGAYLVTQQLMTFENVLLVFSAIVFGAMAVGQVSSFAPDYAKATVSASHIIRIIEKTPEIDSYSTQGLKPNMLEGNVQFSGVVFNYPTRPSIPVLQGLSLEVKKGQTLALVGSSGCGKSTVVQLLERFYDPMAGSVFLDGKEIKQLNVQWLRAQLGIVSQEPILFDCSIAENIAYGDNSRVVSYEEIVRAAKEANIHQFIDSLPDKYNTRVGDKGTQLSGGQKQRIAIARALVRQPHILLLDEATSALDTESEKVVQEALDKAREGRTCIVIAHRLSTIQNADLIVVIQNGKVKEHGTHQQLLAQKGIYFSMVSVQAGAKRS

In the case of `CN1CC[C@]23c4c5ccc(O)c4O[C@H]2[C@@H](O)C=C[C@H]3[C@H]1C5` [MORPHINE], the Activity entry is “substrate [+]”.

As to `C=C[C@H]1C[N@@]2CC[C@H]1C[C@@H]2[C@@H](O)c1ccnc2ccc(OC)cc12` [QUINIDINE], the Activity result is “substrate [+]”.
